Laboratory results reported in article PMC10073729, “Synthesis, radiolabeling, and evaluation of 68Ga-labeled aminoquinoxaline derivative as a potent PFKFB3-targeted PET tracer” (Frontiers in Chemistry, 2023).
Where two headings read alike, the source gives them in different places.

Experiments:
[1] = tested on: PFKFB3; conditions: 2019, cited from earlier work
[2] = biological target: T1, Human Recombinant PFKFB3 Protein (His and GST Tag) (Homo sapiens, UniProt Q16875); test: ADP-Glo-based PFKFB3 enzymatic activity inhibition assay; type: biochemical; conditions: triplicate
T1 construct: His; GST; purchased SinoBiological
T1 sequence (Q16875 whole entry): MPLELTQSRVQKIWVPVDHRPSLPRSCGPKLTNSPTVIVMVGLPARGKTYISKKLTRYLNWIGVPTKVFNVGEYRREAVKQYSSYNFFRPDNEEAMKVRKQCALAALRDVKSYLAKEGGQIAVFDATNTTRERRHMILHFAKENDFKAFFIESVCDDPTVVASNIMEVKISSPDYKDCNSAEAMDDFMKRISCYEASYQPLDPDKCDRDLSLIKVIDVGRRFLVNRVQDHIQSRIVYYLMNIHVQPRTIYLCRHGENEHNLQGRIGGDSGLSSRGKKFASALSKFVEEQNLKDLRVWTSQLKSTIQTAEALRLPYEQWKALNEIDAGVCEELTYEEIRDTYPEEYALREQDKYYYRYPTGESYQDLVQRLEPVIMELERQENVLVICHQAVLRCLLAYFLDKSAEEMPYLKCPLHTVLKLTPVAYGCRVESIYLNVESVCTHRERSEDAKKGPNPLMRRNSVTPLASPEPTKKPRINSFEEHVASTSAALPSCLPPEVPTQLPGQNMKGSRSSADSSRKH
Description: All regents used in this section were purchased from Sigma, and the Human Recombinant PFKFB3 Protein (His and GST Tag) was purchased from SinoBiological. The ADP-Glo™ Kinase Assay kit was also obtained from Promega.
The PFKFB3 enzymatic activity assay followed an identical procedure used in previously published literature, along with the same regents and materials ([Boutard et al., 2019]).

[3] = tested on: F2,6BP production in HCT116 cells; test: Cellular inhibition assay: F2,6BP production in glucose-starved, restimulated HCT116 cells; type: cell-based; conditions: Homo sapiens, HCT-116, 25 mM glucose restimulation 4 h, triplicate
Method: For the cellular inhibition assay, the protocol used in this section was also from the same literature as the PFKFB3 enzymatic activity assay, with minor modifications ([Boutard et al., 2019]). Briefly, glucose-starved HTC116 cells were pretreated with diluted compounds at different concentrations and restimulated with 25 mM glucose for 4 h to trigger glycolytic flux. Cells were then lysed by NaOH ([…]) under 85°C for 10 min and transferred to a HEPES solution (20 mM) neutralized by acetic acid (1 M) to pH 7.5–8.0. The lysates (equal amounts, normalized to protein level) were reacted in a mixture of α-glycerophosphate dehydrogenase (0.17 U), aldolase (0.083 U), pyrophosphate-dependent fructose-6-phosphate kinase from potato (0.17 U) and triosephosphate isomerase (0.83 U) in Tris (pH 8.0), glucose-6-phosphate (17 mM), fructose-6-phosphate (2.5 mM) and magnesium chloride (5.5 mM) in a total volume of 100 µL. The reaction was induced by the addition of NADH (0.14 mM) under 30°C, and the absorbance at 340 nm was measured 30 min post addition. All absorbances for reaction mixtures for test compounds with different concentrations were recorded and used for IC50 calculations in GraphPad Prism 5.0 software.

[4] = representative PFKFB3 inhibitors, Figure 1, ref Boyd et al., 2015, Boutard et al., Wang et al., 2020, read-out: IC50 (PFKBF3)

Row | IC50 [2] | IC50 [3] | Compound | IC50 [1, 4] | IC50 ([1]; ref Boutard et al., read-out: IC50 enzymatic PFKFB3 inhibition (reported))
1 |  |  | CC(C)OC(=O)c1cccc(-c2cc(S(=O)(=O)Nc3ccc(C(=O)O)c(O)c3)sc2Cl)c1 [compound 1] | 0.15 µM | 
2 |  |  | Cc1c(S(=O)(=O)Nc2cccc(-c3nnn[nH]3)c2)oc2ccc(C(C)C)cc12 [compound 2] | 0.08 µM | 
3 |  |  | Cc1noc(C)c1Cn1nc(C#N)c2cc(Oc3ccc(NC(=O)[C@@H]4CCCN4)cc3)ccc21 [compound 3] | 0.003 µM | 
4 | 0.0067 ± 0.0023 µM | 2.3 ± 0.8 µM | CN1CCCC(NC(=O)c2cncc(Nc3cc(-c4ccc5ccn(C)c5c4)c4nccnc4c3)c2)C1 (centres unmarked) [compound 4] |  | 0.002 µM
5 | 0.0125 ± 0.0045 µM | 5.3 ± 1.4 µM | Cn1ccc2ccc(-c3cc(Nc4cncc(C(=O)NC5CCCN(C(=O)CCC(C(=O)O)N6CCN(CC(=O)O)CCN(CC(=O)O)CCN(CC(=O)O)CC6)C5)c4)cc4nccnc34)cc21 (centres unmarked) [compound 5, 2,2′,2′′-(10-(1-carboxy-4-(3-(5-((8-(1-methyl-1H-indol-6-yl)quinoxalin-6-yl)amino)nicotinamido)piperidin-1-yl)-4-oxobutyl)-1,4,7,10-tetraazacyclododecane-1,4,7-triyl) triacetic acid] |  | 
